PubChem BioAssay AID180 (DTP/NCI, 2004)
Several values for one entry are separate records, joined by “and”; a condition that tells them apart may be missing. Equal values may be shown once.

Test system: BDF1 mice, Adenocarcinoma 755 s.c., tumor weight T/C
Experiment: NCI In Vivo Anticancer Drug Screen. Data for tumor model Adenocarcinoma 755 (subcutaneous) in B6D2F1 (BDF1) mice
Details: endpoint: mean tumor weight, higher = larger tumour
Summary of the method: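 Tumor-bearing mice receive test compound while controls get vehicle alone. Antitumor effect is scored from survival or tumor dimensions as a T/C quotient.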

[1] = dose: 75.0 mg/kg/injection, schedule: Q01DX011 (ip), vehicle: methylcellulose (MC)

In the case of `CC1CCC(n2cnc3c(=S)nc[nH]c32)O1` (stereo unspecified), the T/C (dose: 1.8 mg/kg/injection, schedule: Q01DX011 (ip), vehicle: carboxymethylcellulose (CMC)) is reported as 86 % of control, the T/C (dose: 3.7 mg/kg/injection, schedule: Q01DX011 (ip), vehicle: carboxymethylcellulose (CMC)) is reported as 12 % of control and the T/C (dose: 7.5 mg/kg/injection, schedule: Q01DX011 (ip), vehicle: carboxymethylcellulose (CMC)) is reported as 3 % of control. The T/C (dose: 15.0 mg/kg/injection, schedule: Q01DX011 (ip), vehicle: carboxymethylcellulose (CMC)) was 3 % of control.

With `COc1cc2c3c(c4ccc(OC)c(OC)c4c2cc1OC)CN1CCC[C@@H]1C3` the T/C (dose: 5.0 mg/kg/injection, schedule: Q02DX006 (ip), vehicle: water) was 65 % of control, the T/C (dose: 10.0 mg/kg/injection, schedule: Q02DX006 (ip), vehicle: water) was 52 % of control and the T/C (dose: 15.0 mg/kg/injection, schedule: Q02DX006 (ip), vehicle: water) was 33 % of control. The T/C (dose: 20.0 mg/kg/injection, schedule: Q02DX006 (ip), vehicle: water) was 21 % of control.

For `Cc1cc2nc3c(=O)[nH]c(=O)nc-3n(CCOC(=O)CCC(=O)O)c2cc1C`, the T/C (dose: 29.46 mg/kg/injection, schedule: Q01DX011 (ip), vehicle: carboxymethylcellulose (CMC)) was 88 % of control, the T/C (dose: 40.0 mg/kg/injection, schedule: Q01DX011 (ip), vehicle: carboxymethylcellulose (CMC)) was 91 % of control and the T/C (dose: 58.93 mg/kg/injection, schedule: Q01DX011 (ip), vehicle: carboxymethylcellulose (CMC)) was 94 % of control. The T/C (dose: 80.0 mg/kg/injection, schedule: Q01DX011 (ip), vehicle: carboxymethylcellulose (CMC)) was 122 % of control, the T/C (dose: 117.85 mg/kg/injection, schedule: Q01DX011 (ip), vehicle: carboxymethylcellulose (CMC)) was 93 % of control and the T/C (dose: 126.0 mg/kg/injection, schedule: Q01DX011 (ip), vehicle: carboxymethylcellulose (CMC)) was 107 % of control. For the same compound, the T/C (dose: 160.0 mg/kg/injection, schedule: Q01DX011 (ip), vehicle: carboxymethylcellulose (CMC)) was 59 % of control, the T/C (dose: 235.7 mg/kg/injection, schedule: Q01DX011 (ip), vehicle: carboxymethylcellulose (CMC)) was 90 % of control and the T/C (dose: 252.0 mg/kg/injection, schedule: Q01DX011 (ip), vehicle: carboxymethylcellulose (CMC)) was 115 % of control.

`O=C(CCBr)Nc1ccc(NC(=O)CCBr)cc1` was tested, and the T/C (dose: 56.0 mg/kg/injection, schedule: Q01DX011 (ip), vehicle: methylcellulose (MC)) was 113 % of control, the T/C (dose: 113.0 mg/kg/injection, schedule: Q01DX011 (ip), vehicle: methylcellulose (MC)) was 108 % of control and the T/C (dose: 225.0 mg/kg/injection, schedule: Q01DX011 (ip), vehicle: methylcellulose (MC)) was 100 % of control. For the same compound, the T/C (dose: 450.0 mg/kg/injection, schedule: Q01DX011 (ip), vehicle: methylcellulose (MC)) was 117 % of control.

With `S=c1nc[nH]c2c1ncn2C1CCCO1` (stereo unspecified) the T/C (dose: 0.5 mg/kg/injection, schedule: Q01DX011 (ip), vehicle: carboxymethylcellulose (CMC)) was 26 % of control, the T/C (dose: 1.0 mg/kg/injection, schedule: Q01DX011 (ip), vehicle: carboxymethylcellulose (CMC)) was 75 % of control and the T/C (dose: 1.5 mg/kg/injection, schedule: Q01DX011 (ip), vehicle: carboxymethylcellulose (CMC)) was 47 % of control. The T/C (dose: 6.0 mg/kg/injection, schedule: Q01DX011 (ip), vehicle: carboxymethylcellulose (CMC)) was 11 % of control, the T/C (dose: 12.0 mg/kg/injection, schedule: Q01DX011 (ip), vehicle: carboxymethylcellulose (CMC)) was 6 % of control and the T/C (dose: 25.0 mg/kg/injection, schedule: Q01DX011 (ip), vehicle: carboxymethylcellulose (CMC)) was 4 % of control. For the same compound, the T/C (dose: 50.0 mg/kg/injection, schedule: Q01DX011 (ip), vehicle: carboxymethylcellulose (CMC)) was 6 % of control and the T/C (dose: 100.0 mg/kg/injection, schedule: Q01DX011 (ip), vehicle: carboxymethylcellulose (CMC)) was 6 % of control.

`CC(CNC(=O)CCOS(C)(=O)=O)NC(=O)CCOS(C)(=O)=O` (stereo unspecified) was tested, and the T/C (dose: 14.0 mg/kg/injection, schedule: Q01DX011 (ip), vehicle: carboxymethylcellulose (CMC)) was 71 % of control, the T/C (dose: 28.0 mg/kg/injection, schedule: Q01DX011 (ip), vehicle: carboxymethylcellulose (CMC)) was 36 % of control and 60 % of control and the T/C (dose: 113.0 mg/kg/injection, schedule: Q01DX011 (ip), vehicle: carboxymethylcellulose (CMC)) was 2 % of control (2×) and 3 % of control. For the same compound, the T/C (dose: 225.0 mg/kg/injection, schedule: Q01DX011 (ip), vehicle: carboxymethylcellulose (CMC)) was 7 % of control.

In the case of `Cn1c(=O)c2c(nc(N(CCO)CCO)n2C)n(C)c1=O`, the T/C (dose: 480.0 mg/kg/injection, schedule: Q01DX011 (ip), vehicle: saline) is reported as 112 % of control.

For `CC1(c2ccccc2)O[C@@H]2C[C@H]3[C@@H]4CCC5=CC(=O)C=C[C@]5(C)[C@@]4(F)[C@@H](O)C[C@]3(C)[C@]2(C(=O)CO)O1` (stereo partly specified), the T/C (dose: 2.75 mg/kg/injection, schedule: Q01DX011 (sc), vehicle: steriod suspending solution) was 42 % of control and 45 % of control, the T/C (dose: 5.5 mg/kg/injection, schedule: Q01DX011 (sc), vehicle: steriod suspending solution) was 14 % of control and 24 % of control and the T/C (dose: 11.0 mg/kg/injection, schedule: Q01DX011 (sc), vehicle: steriod suspending solution) was 2 % of control and 24 % of control.

In the case of `C#C[C@]1(O)CC[C@H]2[C@@H]3CCc4cc(O)ccc4[C@H]3CC[C@@]21C`, the T/C (dose: 85.0 mg/kg/injection, schedule: Q01DX011 (sc), vehicle: steriod suspending solution) is reported as 51 % of control and 53 % of control, the T/C (dose: 170.0 mg/kg/injection, schedule: Q01DX011 (sc), vehicle: steriod suspending solution) is reported as 38 % of control and 43 % of control and the T/C (dose: 340.0 mg/kg/injection, schedule: Q01DX011 (sc), vehicle: steriod suspending solution) is reported as 37 % of control and 43 % of control. The T/C (dose: 680.0 mg/kg/injection, schedule: Q01DX011 (sc), vehicle: steriod suspending solution) was 23 % of control.

With `CS(C)=O` the T/C (dose: 1000.0 mg/kg/injection, schedule: Q01DX011 (ip), vehicle: other) was 71 % of control, the T/C (dose: 1000.0 mg/kg/injection, schedule: Q#A X022 (ip), vehicle: other) was 25 % of control and the T/C (dose: 1500.0 mg/kg/injection, schedule: Q01DX011 (ip), vehicle: other) was 115 % of control. The T/C (dose: 1500.0 mg/kg/injection, schedule: Q#A X022 (ip), vehicle: other) was 67 % of control.

For `Brc1ncc2[nH]cnc2n1`, the T/C (dose: 25.0 mg/kg/injection, schedule: Q01DX011 (ip), vehicle: methylcellulose (MC)) was 79 % of control and the T/C [1] was 75 % of control.

In the case of `Nc1nc(SCc2ccc(Cl)cc2)c2ncn(C3OC(CO)C(O)C3O)c2n1` (stereo unspecified), the T/C (dose: 37.5 mg/kg/injection, schedule: Q01DX011 (ip), vehicle: methylcellulose (MC)) is reported as 6 % of control and the T/C [1] is reported as 1 % of control.

With `CC(C)Sc1nc(N)nc2nc[nH]c12` the T/C (dose: 1.0 mg/kg/injection, schedule: Q01DX011 (ip), vehicle: saline) was 41 % of control, the T/C (dose: 1.6 mg/kg/injection, schedule: Q01DX011 (ip), vehicle: methylcellulose (MC)) was 16 % of control and the T/C (dose: 3.0 mg/kg/injection, schedule: Q01DX011 (ip), vehicle: saline) was 41 % of control. For the same compound, the T/C (dose: 3.1 mg/kg/injection, schedule: Q01DX011 (ip), vehicle: methylcellulose (MC)) was 11 % of control, the T/C (dose: 6.0 mg/kg/injection, schedule: Q01DX011 (ip), vehicle: saline) was 30 % of control and the T/C (dose: 6.25 mg/kg/injection, schedule: Q01DX011 (ip), vehicle: methylcellulose (MC)) was 2 % of control. For the same compound, the T/C (dose: 12.0 mg/kg/injection, schedule: Q01DX011 (ip), vehicle: saline) was 37 % of control, the T/C (dose: 12.5 mg/kg/injection, schedule: Q01DX011 (ip), vehicle: methylcellulose (MC)) was 1 % of control and the T/C (dose: 25.0 mg/kg/injection, schedule: Q01DX011 (ip), vehicle: saline) was 17 % of control. The T/C (dose: 50.0 mg/kg/injection, schedule: Q01DX011 (ip), vehicle: saline) was 4 % of control, the T/C (dose: 100.0 mg/kg/injection, schedule: Q01DX011 (ip), vehicle: saline) was 7 % of control and the T/C (dose: 125.0 micrograms/kg/injection, schedule: Q01DX011 (ip), vehicle: saline) was 76 % of control. The T/C (dose: 250.0 micrograms/kg/injection, schedule: Q01DX011 (ip), vehicle: saline) was 77 % of control, the T/C (dose: 500.0 micrograms/kg/injection, schedule: Q01DX011 (ip), vehicle: saline) was 52 % of control and the T/C (dose: 1000.0 micrograms/kg/injection, schedule: Q01DX011 (ip), vehicle: saline) was 80 % of control.

For `COC12C(COC(N)=O)C3=C(C(=O)C(C)=C(N)C3=O)N1CC1C2N1C` (stereo unspecified), the T/C (dose: 1.25 mg/kg/injection, schedule: Q01DX011 (ip), vehicle: carboxymethylcellulose (CMC)) was 62 % of control, the T/C (dose: 2.5 mg/kg/injection, schedule: Q01DX011 (ip), vehicle: carboxymethylcellulose (CMC)) was 52 % of control and the T/C (dose: 5.0 mg/kg/injection, schedule: Q01DX011 (ip), vehicle: carboxymethylcellulose (CMC)) was 27 % of control. For the same compound, the T/C (dose: 10.0 mg/kg/injection, schedule: Q01DX011 (ip), vehicle: carboxymethylcellulose (CMC)) was 3 % of control and 7 % of control.

In the case of `CC(=O)[C@H]1CC[C@H]2[C@@H]3C[C@H](C)C4=CC(=O)CC[C@]4(C)[C@H]3[C@@H](O)C[C@]12C`, the T/C (dose: 50.0 mg/kg/injection, schedule: Q01DX011 (sc), vehicle: steriod suspending solution) is reported as 56 % of control and 63 % of control, the T/C (dose: 100.0 mg/kg/injection, schedule: Q01DX011 (sc), vehicle: steriod suspending solution) is reported as 59 % of control and 60 % of control and the T/C (dose: 200.0 mg/kg/injection, schedule: Q01DX011 (sc), vehicle: steriod suspending solution) is reported as 15 % of control and 34 % of control.
